Article PMC12568630, “SNAP-tag2 for faster and brighter protein labeling” (Nature Chemical Biology, 2025)

Molecular target: T1, hAGT (Homo sapiens, UniProt P16455)
T1 construct: gene MGMT; parental hAGT
T1 sequence (P16455 1-207): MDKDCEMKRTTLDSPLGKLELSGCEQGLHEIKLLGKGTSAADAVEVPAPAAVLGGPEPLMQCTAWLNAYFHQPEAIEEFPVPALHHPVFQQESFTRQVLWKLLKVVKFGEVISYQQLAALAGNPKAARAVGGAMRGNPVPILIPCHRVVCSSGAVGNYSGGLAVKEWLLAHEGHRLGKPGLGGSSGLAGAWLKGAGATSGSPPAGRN
Experiment: biochemical
Set-up: fluorescence polarization labeling kinetics of purified tag proteins with TMR substrates, apparent second-order rate constant
Conditions: read-out: hAGT kapp x 10^3

Row | kinact/KI [M⁻¹ s⁻¹] | SMILES
1 | 800 ± 40 | CN(C)c1ccc2c(-c3cc(C(=O)NCc4ccc(COc5cc(Cl)nc(N)n5)cc4)ccc3C(=O)[O-])c3ccc(=[N+](C)C)cc-3oc2c1 [CP–TMR]
2 | 640 ± 40 | CN(C)c1ccc2c(-c3cc(C(=O)NCc4ccc(COc5cc(C(F)(F)F)nc(N)n5)cc4)ccc3C(=O)[O-])c3ccc(=[N+](C)C)cc-3oc2c1 [compound 4, CF3P–TMR]
3 | 550 ± 50 | CN(C)c1ccc2c(-c3cc(C(=O)NCc4ccc(COc5cc(Cl)nc(N)n5)cc4F)ccc3C(=O)[O-])c3ccc(=[N+](C)C)cc-3oc2c1 [compound 22, CF–TMR]
4 | 520 ± 60 | CN(C)c1ccc2c(-c3cc(C(=O)NCc4ccc(COc5cc(C(F)(F)F)nc(N)n5)cc4F)ccc3C(=O)[O-])c3ccc(=[N+](C)C)cc-3oc2c1 [compound 30, TF–TMR]
